Reference: US11066433B2, “Pentaaza macrocyclic ring complexes possessing oral bioavailability” (Galera Labs, LLC, priority 2015, dated 2021)
Blank lines part the entries; values can stand above or below the molecule they belong to.

Columns and labels:
[1] = Oral bioavailability by intraduodenal (id) dosing of minipigs, oil formulations, versus iv parent; type: in vivo, Gottingen minipig; details: id 10 mg/kg, 10% by weight formulation, vs iv 1 mg/kg parent, AUC0-24 h
Method: Compounds were screened for oral bioavailability by injecting the formulated prodrugs directly into the duodenum (intraduodenal or id administration) of the minipig test subjects, thus bypassing the acidic environment of the stomach and thereby eliminating potentially misleading oral bioavailability results that could arise from alteration of the test article drug in the acid environment of the stomach.
The studies were conducted at Xenometrics LLC (Stillwell, Kans.) and the id bioavailability was determined using various axial ligand derivative complexes of GC4419, GC4444, GC4403 and GC4401.
Male Gottingen minipigs (4-5 mo old, 9-12 kg weight) were purchased from Marshall BioResources and housed at Xenometrics. […] The distal end was exteriorized with a reusable accessible hub (see surgical details below). During a recovery period of at least 2 weeks the minipigs were handled daily to acclimate them to the test procedures, i.e., id dosing and blood collections. For each experiment, each minipig received a test article drug dissolved or suspended in an excipient vehicle. […] All dosing experiments were conducted in fasted animals. Food was withdrawn from the minipigs 16 hours before dosing. The minipigs had ad libitum access to water. Dosed minipigs were allowed access to food 6 hour after dosing. The test article was administered at a dose of 10 mg/kg parent drug in 0.1 mL/kg vehicle (e.g., 1.5 mL in 15 kg minipig) as a bolus injection (˜1 minute) via the id cannula. The actual amount of total test article drug administered varied with the formula weight of the prodrug. An equal volume of excipient vehicle was used to flush the cannula after the test article was administered. Approximately 6 hours later, corn oil was used to flush the cannula. After approximately 24 hours post-dose, the catheter was flushed with sterile saline solution and capped. At the following time-points 0.25, 0.5, 1, 2, 4, 8, 24 and 48 hour post-injection, 2 mL blood samples were collected by cranial vena cava puncture (4 mL Sodium heparin Vacutainer, 20 g 1.5″ needle) after the skin surface was wiped with ethanol. The minipig was placed in a sling in a recumbent position without anesthesia for the collection of blood samples. The minipigs were never used more than once per 7 days for experimentation. The blood samples were kept on ice until processed for plasma. Blood samples were centrifuged at 1200×g for ten minutes at 4° C. and plasma samples were transferred to 96 well plate tubes, capped and stored at −20° C. until shipment on dry ice to the analytical laboratory used for measuring the concentration of drug in the plasma. The concentration of the parent manganese pentaaza macrocylic ring complex (independent of the composition of the axial ligands) was measured in plasma using a validated HPLC/MS/MS method that is linear between 50 ng/mL and 20,000 ng/mL.
Maisine 35-1 is chemically defined to be the monoglyceride glyceryl monolinoleate (NF) and was supplied by Gattefosse, SAINT-PRIEST Cedex, France. Labrasol (NF) is chemically defined to be caprylocaproyl polyoxyl-8 glycerides NF and was supplied by Gattefosse, SAINT-PRIEST Cedex, France. Labrafil M 1944 CS is chemically defined to be oleoyl polyoxyl-6 glycerides (NF), and is available from Gattefosse, SAINT-PRIEST Cedex, France. The dosing solutions were all prepared using a four place analytical balance by weighing all components of each formulation so that 10% by weight of each formulation contained the test article drug substance and 90% by weight of the oil used for that formulation.
The bioanalytical method which is used to quantitate the parent Mn(II) macrocyclic ring ligand structure in plasma utilizes HPLC with MS/MS detection and monitors the presence of the monocationic [monoformatoMn(pentaazamacrocycle)]+ complex. […]

[2] = tested on: colon of rats subjected to an experimental model of colitis; details: ip injection; cited from earlier work
[3] = tested on: radiation-induced oral mucositis; details: ip, hamster oral mucositis model; cited from earlier work
[4] = tested on: lethal total body irradiation; details: ip, adult mice; cited from earlier work
[5] = tested on: inflammation; details: ip, rat; cited from earlier work
[6] = tested on: collagen-induced arthritis; details: ip, rat collagen-induced arthritis; cited from earlier work
[7] = Solubility in water; type: physicochemical
[8] = tested on: VEGFr inhibitor-induced pulmonary disease; details: ip, rat model; cited from earlier work
[9] = tested on: mouse cancer models; details: ip; cited from earlier work
[10] = tested on: oral mucositis; details: iv infusion, head-and-neck cancer patients, chemoradiation therapy; cited from earlier work

Molecule: [Cl-].[Cl-].[Mn+2].c1cc2nc(c1)CN[C@@H]1CCCC[C@H]1NCCN[C@@H]1CCCC[C@H]1NC2 [GC4403]
- Mini-Pig BioA ([1]; base oil Capmul MCM): 9%
- injury to the colon [2]: significantly reduce the injury to the colon
- radiation damage [3]: attenuate the radiation damage
- radiation damage [4]: attenuate the radiation damage
- inflammation [5]: inhibit inflammation
- joint disease [6]: prevent joint disease

- Mini-Pig BioA ([1]; base oil Capmul MCM): 9%
- Mini-Pig BioA ([1]; base oil Labrafil M2125 CS): 7%
- Mini-Pig BioA ([1]; base oil Maisine 35-1): 8%
- Mini-Pig BioA ([1]; base oil Miglyol 812 N): 8%
- Mini-Pig BioA ([1]; base oil Peceol): 9%
- solubility in water [7]: relatively readily soluble in water
Molecule: [Cl][Mn][Cl].c1cc2nc(c1)CN[C@H]1CCCC[C@@H]1NCCN[C@H]1CCCC[C@@H]1NC2 [GC4419, reference compound]
- pulmonary disease [8]: attenuate VEGFr inhibitor-induced pulmonary disease
- anti-tumor activity of anti-metabolite and anti-mitotic agents [9]: increase the anti-tumor activity
- oral mucositis [10]: reduce oral mucositis

- Mini-Pig BioA ([1]; base oil Capmul MCM): 32%
- Mini-Pig BioA ([1]; base oil Maisine 35-1): 28%
Molecule: Manganese(II)bis-phenylacetato[(4aS,13aS,17aS,21aS)-1,2,3,4,4a,5,6,12,13,13a,14,15,16,17,17a,18,19,20,21,21a-Eicosahydro-11,7-nitrilo-7H-dibenzo[b,h][1,4,7,10] tetraazacyclo-heptadecine-κN5, κN13, κN18, κN21, κN22]- [GC4718]

- Mini-Pig BioA ([1]; base oil Capmul MCM): 25%
- Mini-Pig BioA ([1]; base oil Maisine 35-1): 31%
- Mini-Pig BioA ([1]; base oil Peceol): 28%
Molecule: Manganese(II)bis-phenylglyoxaloto[(4aS,13aS,17aS,21aS)-1,2,3,4,4a,5,6,12,13,13a,14,15,16,17,17a,18,19,20,21,21a-Eicosahydro-11,7-nitrilo-7H-dibenzo[b,h][1,4,7,10]tetraazacyclohepta-decine-κN5, κN13, κN18, κN21, κN22]- [GC4719]

- Mini-Pig BioA ([1]; base oil Capmul MCM): 17%
- Mini-Pig BioA ([1]; base oil Labrafil M2125 CS): 22%
Molecule: Manganese(II)bis-pivaloato[(4aS,13aS,17aS,21aS)-1,2,3,4,4a,5,6,12,13,13a,14,15,16,17,17a,18,19,20,21,21a-Eicosahydro-11,7-nitrilo-7H-dibenzo[b,h][1,4,7,10] tetraazacycloheptadecine-κN5, κN13, κN18, κN21, κN22]- [GC4709]

- Mini-Pig BioA ([1]; base oil Labrafil M2125 CS): 20%
Molecule: Manganese(II)bis-propionato[6R-Methyl(4aR,13aR,17aR,21 aR)-1,2,3,4,4a,5,6,12,13,13a,14,15,16,17,17a,18,19,20,21,21a-Eicosahydro-11,7-nitrilo-7H-dibenzo[b,h][1,4,7,10] tetraazacycloheptadecine-κN5, κN13, κN18, κN21, κN22]- [GC4747]

- Mini-Pig BioA ([1]; base oil Labrafil M2125 CS): 22%
Molecule: Manganese(II)bis-propionato[(4aR,13aR,17aR,21 aR)-1,2,3,4,4a,5,6,12,13,13a,14,15,16,17,17a,18,19,20,21,21a-Eicosahydro-11,7-nitrilo-7H-dibenzo[b,h][1,4,7,10] tetraazacycloheptadecine-κN5, κN13, κN18, κN21, κN22]- [GC4748]

- Mini-Pig BioA ([1]; base oil Capmul MCM): 27%
- Mini-Pig BioA ([1]; base oil Labrafil M1944 CS): 23%
- Mini-Pig BioA ([1]; base oil Labrafil M2125 CS): 44%
- Mini-Pig BioA ([1]; base oil Maisine 35-1): 29%
- Mini-Pig BioA ([1]; base oil Peceol): 29%
Molecule: Manganese(II)bis-propionato[(4aS,13aS,17aS,21aS)-1,2,3,4,4a,5,6,12,13,13a,14,15,16,17,17a,18,19,20,21,21a-Eicosahydro-11,7-nitrilo-7H-dibenzo[b,h][1,4,7,10] tetraaza-cycloheptadecine-κN5, κN13, κN18, κN21, κN22]- [GC4711]

- Mini-Pig BioA ([1]; base oil Capmul MCM): 28%
Molecule: Manganese(II)bis-rac-Mandelato[(4aS,13aS,17aS,21aS)-1,2,3,4,4a,5,6,12,13,13a,14,15,16,17,17a,18,19,20,21,21a-Eicosahydro-11,7-nitrilo-7H-dibenzo[b,h][1,4,7,10] tetraazacycloheptadecine-κN5, κN13, κN18, κN21, κN22]- [GC4706]

- Mini-Pig BioA ([1]; base oil Capmul MCM): 23%
- Mini-Pig BioA ([1]; base oil Peceol): 24%
Molecule: Manganese(II)bis-racemic-2-phenylpropionato[(4aS,13aS,17aS,21 aS)-1,2,3,4,4a,5,6,12,13,13a,14,15,16,17,17a,18,19,20,21,21a-Eicosahydro-11,7-nitrilo-7H-dibenzo[b,h][1,4,7,10] tetraazacycloheptadecine-κN5, κN13, κN18, κN21, κN22]- [GC4705]

- Mini-Pig BioA ([1]; base oil Capmul MCM): 36%
Molecule: Manganese(II)bis-racemic-phenylglycinato[2S, 21 S-Dimethyl(4aR,13aR,17aR,21 aR)-1,2,3,4,4a,5,6,12,13,13a,14,15,16,17,17a,18,19,20,21,21a-Eicosahydro-11,7-nitrilo-7H-dibenzo[b,h][1,4,7,10] tetraazacycloheptadecine-κN5, κN13, κN18, κN21, κN22]- [GC4715]

- Mini-Pig BioA ([1]; base oil Capmul MCM): 34%
Molecule: Manganese(II)bis-racemic-phenylglycinato[6R-Methyl(4aR,13aR,17aR,21 aR)-1,2,3,4,4a,5,6,12,13,13a,14,15,16,17,17a,18,19,20,21,21a-Eicosahydro-11,7-nitrilo-7H-dibenzo[b,h][1,4,7,10] tetraazacycloheptadecine-κN5, κN13, κN18, κN21, κN22]- [GC4716]

- Mini-Pig BioA ([1]; base oil Capmul MCM): 26%
Molecule: Manganese(II)bis-racemic-phenylglycinato[(4aR,13aR,17aR,21 aR)-1,2,3,4,4a,5,6,12,13,13a,14,15,16,17,17a,18,19,20,21,21a-Eicosahydro-11,7-nitrilo-7H-dibenzo[b,h][1,4,7,10] tetraazacycloheptadecine-κN5, κN13, κN18, κN21, κN22]- [GC4717]

- Mini-Pig BioA ([1]; base oil Capmul MCM): 33%
- Mini-Pig BioA ([1]; base oil Miglyol 812 N): 32%
Molecule: Manganese(II)bis-racemic-phenylglycinato[(4aS,13aS,17aS,21 aS)-1,2,3,4,4a,5,6,12,13,13a,14,15,16,17,17a,18,19,20,21,21a-Eicosahydro-11,7-nitrilo-7H-dibenzo[b,h][1,4,7,10] tetraazacycloheptadecine-κN5, κN13, κN18, κN21, κN22]- [GC4720]
